Reference: patent US20210045385A1, “PYRIDAZINONE-SUBSTITUTED KETOXIMES AS HERBICIDES” (FMC Corporation, priority 2018, published 2021)

Assays:
Assay type in all cases: in vivo
[1] = test system: barnyardgrass (Echinochloa crus-galli); test: Test C preemergence, visual plant response rating; details: 1000 g ai/ha
Excerpt: (§1) Seeds of plant species selected from barnyardgrass (Echinochloa crus-galli), kochia (Bassia scoparia), ragweed (common ragweed, Ambrosia artemisiifolia), Italian ryegrass (Lolium mutiflorum), foxtail, giant (giant foxtail, Setaria faberi), foxtail, green (green foxtail, Setaria viridis), and pigweed (Amaranthus retroflexus) were planted into a blend of loam soil and sand and treated preemergence with a directed soil spray using test chemicals formulated in anon-phytotoxic solvent mixture which included a surfactant.
(§2) At the same time, plants selected from these weed species and also wheat (Triticum aestivum), corn (Zea mays), blackgrass (Alopecurus myosuroides), and galium (catchweed bedstraw, Galium aparine) were planted in pots containing the same blend of loam soil and sand and treated with post emergence applications of test chemicals formulated in the same manner. Plants ranged in height from 2 to 10 cm and were in the one- to two-leaf stage for the postemergence treatment. Treated plants and untreated controls were maintained in a greenhouse for approximately 10 d, after which time all treated plants were compared to untreated controls and visually evaluated for injury. Plant response ratings, summarized in Table C, are based on a 0 to 100 scale where 0 is no effect and 100 is complete control. A dash (-)response means no test result.

[2] = test system: Italian ryegrass (Lolium mutiflorum); test: Test C preemergence, visual plant response rating; details: 1000 g ai/ha
Excerpt: as §1, §2

[3] = test system: pigweed (Amaranthus retroflexus); test: Test C preemergence, visual plant response rating; details: 1000 g ai/ha
Excerpt: as §1, §2

kochia (Bassia scoparia) [4] = test: Test C preemergence, visual plant response rating; details: 1000 g ai/ha
Excerpt: as §1, §2

[5] = test system: ragweed (common ragweed, Ambrosia artemisiifolia); test: Test C preemergence, visual plant response rating; details: 1000 g ai/ha
Excerpt: as §1, §2

[6] = test system: foxtail, giant (giant foxtail, Setaria faberi); test: Test C preemergence, visual plant response rating; details: 1000 g ai/ha
Excerpt: as §1, §2

[7] = test system: galium (catchweed bedstraw, Galium aparine); test: Test C postemergence, visual plant response rating; details: Test C, postemergence, 1000 g ai/ha
Excerpt: as §1, §2

[8] = test system: barnyardgrass (Echinochloa crus-galli); test: Test C postemergence, visual plant response rating; details: Test C, postemergence, 1000 g ai/ha
Excerpt: as §1, §2

[9] = test system: wheat (Triticum aestivum); test: Test C postemergence, visual plant response rating; details: Test C, postemergence, 1000 g ai/ha
Excerpt: as §1, §2

[10] = test system: Italian ryegrass (Lolium mutiflorum); test: Test C postemergence, visual plant response rating; details: Test C, postemergence, 1000 g ai/ha
Excerpt: as §1, §2

[11] = test system: blackgrass (Alopecurus myosuroides); test: Test C postemergence, visual plant response rating; details: Test C, postemergence, 1000 g ai/ha
Excerpt: as §1, §2

[12] = test system: pigweed (Amaranthus retroflexus); test: Test C postemergence, visual plant response rating; details: Test C, postemergence, 1000 g ai/ha
Excerpt: as §1, §2

kochia (Bassia scoparia) [13] = test: Test C postemergence, visual plant response rating; details: Test C, postemergence, 1000 g ai/ha
Excerpt: as §1, §2

corn (Zea mays) = test: Test C postemergence, visual plant response rating; details: Test C, postemergence, 1000 g ai/ha
Excerpt: as §1, §2

[14] = test system: ragweed (common ragweed, Ambrosia artemisiifolia); test: Test C postemergence, visual plant response rating; details: Test C, postemergence, 1000 g ai/ha
Excerpt: as §1, §2

[15] = test system: foxtail, giant (giant foxtail, Setaria faberi); test: Test C postemergence, visual plant response rating; details: Test C, postemergence, 1000 g ai/ha
Excerpt: as §1, §2

SMILES | Barnyardgrass plant response rating (0 to 100 scale) [1] | Ryegrass, Italian plant response rating (0 to 100 scale) [2] | Pigweed plant response rating (0 to 100 scale) [3] | Kochia plant response rating (0 to 100 scale) (kochia (Bassia scoparia) [4]) | Ragweed plant response rating (0 to 100 scale) [5] | Foxtail, Giant plant response rating (0 to 100 scale) [6] | Galium plant response rating (0 to 100 scale) [7] | Barnyardgrass plant response rating (0 to 100 scale) [8] | Wheat plant response rating (0 to 100 scale) [9] | Ryegrass, Italian plant response rating (0 to 100 scale) [10] | Blackgrass plant response rating (0 to 100 scale) [11] | Pigweed plant response rating (0 to 100 scale) [12] | Kochia plant response rating (0 to 100 scale) (kochia (Bassia scoparia) [13]) | Corn plant response rating (0 to 100 scale) (corn (Zea mays)) | Ragweed plant response rating (0 to 100 scale) [14] | Foxtail, Giant plant response rating (0 to 100 scale) [15]
CCO/N=C(/c1c(O)cnn(C)c1=O)c1cccc2ccccc12 [Compound 225] | 0 | 0 | 80 | 10 | 40 | 60 | 90 | 10 | 0 | 0 | 20 | 60 | 10 | 0 | 70 | 20
CO/N=C(/c1c(O)cnn(C)c1=O)c1cccc2ccccc12 [Compound 237] | 0 | 0 | 90 | 30 | 20 | 60 | 100 | 0 | 0 | 10 | 10 | 90 | 80 | 0 | 30 | 0
CO/N=C(\c1c(O)cnn(C)c1=O)c1cccc2ccccc12 [Compound 238] | 0 | 20 | 100 | 30 | 90 | 40 | 90 | 20 | 0 | 0 | 20 | 90 | 80 | 0 | 30 | 40
